Experimental data: patent US6890736B1, “Methods for producing proteins in cultured cells” (Immunex Corporation, priority 2002, dated 2005)
“And” between values parts separate entries of the source, which are not always exact repeats. Equal entries are not always repeated.

Legend:
Type in all cases: cell-based, Chinese hamster
[1] = system: cell line 25H9 (CHO cells that produce IL-1R-II protein); test: Example 2: optimization of temperature and decitabine concentration, IL-1R-II production
Procedure: (§1) About 2×10^6 cells of cell line 25H9 were inoculated into 30 milliliters of serum-free medium and incubated at the temperatures indicated in Table 1 in vented shake flasks. At the times indicated in Table 1, samples were taken from each flask to determine IL-1R-II titer, cell number, and cell viability. IL-1R-II protein titer was determined by ELISA assay. Cell number was determined by counting cells in a hemocytometer. Cell viability was determined by trypan blue staining and counting stained cells in a hemocytometer. Cumulative viable cell density (CVCD) is the area under the curve of a plot of the viable cell density versus time (in units of cells/ml/day). Productivity (pg of IL-1R-II/cell/day) was determined by dividing the protein titer on a particular day by the CVCD on the same day. Cells were fed with amino acids on days 2 and 5, and dextrose was added periodically in order to maintain levels above 2.0 g/L. All samples were done in duplicate, and the data shown is an average value.
To determine an optimum temperature and decitabine concentration, three temperatures (30° C., 31° C., and 32° C.) and three decitabine concentrations (10 μM, 15 μM, and 20 μM) were tested. A 31° C. culture containing 0.5 mM sodium butyrate was grown as a control. […] See e.g. International Application Nos. WO 89/06686 and WO 87/05626. The experiment was performed as in Example 1 except that the inducer concentrations, temperatures, and days at which data was collected are as indicated in Table 2 and FIG. 1.

[2] = system: cell line 25H9 (CHO cells that produce IL-1R-II protein); test: Example 3: induction with 5-bromo-2′-deoxycytidine 5′-monophosphate, IL-1R-II production; details: 31° C., 10 μM
Procedure: as §1
(§2) The following experiment compares the effects of 5-bromo-2′-deoxycytidine 5′-monophosphate and 5-aza-2′-deoxycytidine on induction of protein production. The experiment was done as described in Example 1 with the following exceptions. All cultures were incubated at 31° C., and cell number and viability were determined using a Guava PCA Cytometer (available from Guava Technologies, Hayward, Calif., USA). Samples were done in triplicate.

[3] = system: cell line 25H9 (CHO cells); test: Example 3: cell number (Guava PCA Cytometer); details: 31° C., 10 μM
Procedure: as §1, §2

[4] = 30° C., 10 μM decitabine, day 3
[5] = 30° C., 10 μM decitabine, day 6
[6] = 30° C., 10 μM decitabine, day 8
[7] = 30° C., 15 μM decitabine, day 3
[8] = 30° C., 15 μM decitabine, day 6
[9] = 30° C., 20 μM decitabine, day 3
[10] = 30° C., 20 μM decitabine, day 6
[11] = 30° C., 20 μM decitabine, day 8
[12] = 31° C., 10 μM decitabine, day 3
[13] = 31° C., 10 μM decitabine, day 6
[14] = 31° C., 10 μM decitabine, day 8
[15] = 31° C., 15 μM decitabine, day 3
[16] = 31° C., 15 μM decitabine, day 6
[17] = 31° C., 15 μM decitabine, day 8
[18] = 31° C., 20 μM decitabine, day 3
[19] = 31° C., 20 μM decitabine, day 6
[20] = 31° C., 20 μM decitabine, day 8
[21] = 32° C., 10 μM decitabine, day 3
[22] = 32° C., 10 μM decitabine, day 6
[23] = 32° C., 10 μM decitabine, day 8
[24] = 32° C., 15 μM decitabine, day 3
[25] = 32° C., 15 μM decitabine, day 6
[26] = 32° C., 20 μM decitabine, day 3
[27] = 32° C., 20 μM decitabine, day 6
[28] = 32° C., 20 μM decitabine, day 8

Nc1ncn([C@H]2C[C@H](O)[C@@H](CO)O2)c(=O)n1 [decitabine, 5-aza-2′-deoxycytidine]
IL-1R-II produced at 31° C. versus 30° C. or 32° C. (FIG. 1) ([1]; 10 μM decitabine, 8 days): more IL-1R-II | IL-1R-II titer in 20 μM versus 10 μM or 15 μM decitabine ([1]; 30° C.): higher titer of IL-1R-II | IL1R-II Titer ([1]; 30° C., 10 μM decitabine, day 0): 0.0 µg/mL | IL1R-II Titer [1, 4]: 68.2 µg/mL | Productivity [1, 4]: 9.2 pg IL-1R-II/cell/day | IL1R-II Titer [1, 5]: 156.5 µg/mL | Productivity [1, 5]: 10.9 pg IL-1R-II/cell/day | IL1R-II Titer [1, 6]: 260.5 µg/mL | Productivity [1, 6]: 14.4 pg IL-1R-II/cell/day | IL1R-II Titer ([1]; 30° C., 15 μM decitabine, day 0): 0.0 µg/mL | IL1R-II Titer [1, 7]: 77.2 µg/mL | Productivity [1, 7]: 11.3 pg IL-1R-II/cell/day | IL1R-II Titer [1, 8]: 173.0 µg/mL | Productivity [1, 8]: 12.4 pg IL-1R-II/cell/day | IL1R-II Titer ([1]; 30° C., 15 μM decitabine, day 8): 283.0 µg/mL | IL1R-II Titer ([1]; 30° C., 20 μM decitabine, day 0): 0.0 µg/mL | IL1R-II Titer [1, 9]: 83.6 µg/mL | Productivity [1, 9]: 10.6 pg IL-1R-II/cell/day | IL1R-II Titer [1, 10]: 219.0 µg/mL | Productivity [1, 10]: 13.4 pg IL-1R-II/cell/day | IL1R-II Titer [1, 11]: 346.0 µg/mL | Productivity [1, 11]: 16.9 pg IL-1R-II/cell/day | IL-1R-II titer versus culture containing 0.5 mM sodium butyrate ([1]; 31° C., 10 μM decitabine, 8 days): higher titer | IL1R-II Titer ([1]; 31° C., 10 μM decitabine, day 0): 0.0 µg/mL | IL1R-II Titer [1, 12]: 164.0 µg/mL | Productivity [1, 12]: 18.8 pg IL-1R-II/cell/day | IL1R-II Titer [1, 13]: 448.5 µg/mL | Productivity [1, 13]: 21.3 pg IL-1R-II/cell/day | IL1R-II Titer [1, 14]: 1087 µg/mL and 1087.0 µg/mL | Productivity [1, 14]: 38.1 pg IL-1R-II/cell/day | IL1R-II Titer ([1]; 31° C., 15 μM decitabine, day 0): 0.0 µg/mL | IL1R-II Titer [1, 15]: 174.0 µg/mL | Productivity [1, 15]: 22.0 pg IL-1R-II/cell/day | IL1R-II Titer [1, 16]: 440.0 µg/mL | Productivity [1, 16]: 22.9 pg IL-1R-II/cell/day | IL1R-II Titer [1, 17]: 718.0 µg/mL | Productivity [1, 17]: 27.8 pg IL-1R-II/cell/day | IL1R-II Titer ([1]; 31° C., 20 μM decitabine, day 0): 0.0 µg/mL | IL1R-II Titer [1, 18]: 162.0 µg/mL | Productivity [1, 18]: 17.6 pg IL-1R-II/cell/day | IL1R-II Titer [1, 19]: 426.0 µg/mL | Productivity [1, 19]: 19.6 pg IL-1R-II/cell/day | IL1R-II Titer [1, 20]: 774.5 µg/mL | Productivity [1, 20]: 27.1 pg IL-1R-II/cell/day | productivity on a per cell basis versus control culture grown in butyrate ([1]; 31° C., all cultures grown in decitabine): comparable to, and in some cases greater than | IL-1R-II produced in 10 μM versus 15 μM or 20 μM decitabine ([1]; 32° C.): produced more IL-1R-II | IL1R-II Titer ([1]; 32° C., 10 μM decitabine, day 0): 0.0 µg/mL | IL1R-II Titer [1, 21]: 186.0 µg/mL | Productivity [1, 21]: 23.1 pg IL-1R-II/cell/day | IL1R-II Titer [1, 22]: 407.0 µg/mL | Productivity [1, 22]: 21.5 pg IL-1R-II/cell/day | IL1R-II Titer [1, 23]: 610.5 µg/mL | Productivity [1, 23]: 24.5 pg IL-1R-II/cell/day | IL1R-II Titer ([1]; 32° C., 15 μM decitabine, day 0): 0.0 µg/mL | IL1R-II Titer [1, 24]: 189.0 µg/mL | Productivity [1, 24]: 23.5 pg IL-1R-II/cell/day | IL1R-II Titer [1, 25]: 410.0 µg/mL | Productivity [1, 25]: 22.5 pg IL-1R-II/cell/day | IL1R-II Titer ([1]; 32° C., 15 μM decitabine, day 8): 478.0 µg/mL | IL1R-II Titer ([1]; 32° C., 20 μM decitabine, day 0): 0.0 µg/mL | IL1R-II Titer [1, 26]: 184.5 µg/mL | Productivity [1, 26]: 22.2 pg IL-1R-II/cell/day | IL1R-II Titer [1, 27]: 492.0 µg/mL | Productivity [1, 27]: 26.3 pg IL-1R-II/cell/day | IL1R-II Titer [1, 28]: 488.5 µg/mL | Productivity [1, 28]: 20.7 pg IL-1R-II/cell/day | Titer of IL-1R-II ([2]; day 0): 0.0 mg/L | Productivity ([2]; day 2): 12.2 pg of IL-1RII/cell/day | Titer of IL-1R-II ([2]; day 2): 58.5 mg/L | Productivity ([2]; day 5): 13.3 pg of IL-1RII/cell/day | Titer of IL-1R-II ([2]; day 5): 148.5 mg/L | Productivity ([2]; day 7): 14.1 pg of IL-1RII/cell/day | Titer of IL-1R-II ([2]; day 7): 197.5 mg/L | Productivity ([2]; day 9): 14.9 pg of IL-1RII/cell/day | Titer of IL-1R-II ([2]; day 9): 238.4 mg/L | Viable Cell Density ([3]; day 0): 2.4 cells/ml × 10^6 | Viable Cell Density ([3]; day 2): 2.4 cells/ml × 10^6 | Viable Cell Density ([3]; day 5): 1.8 cells/ml × 10^6 | Viable Cell Density ([3]; day 7): 1.1 cells/ml × 10^6 | Viable Cell Density ([3]; day 9): 0.9 cells/ml × 10^6
